Read-outs that look alike come from different tables or passages of the source. Where no end group is shown, it is not given here.
Assays:
[1] = molecular target: T1, K^b on the surface of K^b transfected drosophila cells (Mus musculus, UniProt P01901); assay: FACS analysis of stabilization of cell surface K^b by peptides; assay type: cell-based
T1 construct: expressed in transfected cells; host or cells: Drosophila cells transfected with K^b
T1 sequence (P01901 22-369): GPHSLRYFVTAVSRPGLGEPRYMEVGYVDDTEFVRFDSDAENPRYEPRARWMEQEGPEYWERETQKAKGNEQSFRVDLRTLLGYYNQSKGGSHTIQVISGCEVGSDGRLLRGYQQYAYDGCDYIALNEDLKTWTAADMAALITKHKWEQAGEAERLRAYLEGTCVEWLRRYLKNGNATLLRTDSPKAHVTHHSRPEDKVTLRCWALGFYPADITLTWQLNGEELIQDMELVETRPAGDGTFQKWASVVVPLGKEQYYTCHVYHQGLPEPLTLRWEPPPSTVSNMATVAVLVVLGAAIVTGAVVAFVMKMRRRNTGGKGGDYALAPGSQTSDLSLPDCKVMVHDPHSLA
T1 sequence (P01887 21-119 partner): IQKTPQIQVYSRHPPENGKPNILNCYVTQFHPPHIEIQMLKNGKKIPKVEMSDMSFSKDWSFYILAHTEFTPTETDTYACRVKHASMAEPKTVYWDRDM
Method: FACS Analysis. Values from fluorescence activated cell sorter (FACS) analysis showing the relative amounts of K^b on the surface of K^b transfected drosophila cells following an 18-hour incubation with the indicated peptides. […] Median fluorescence values from separate experiments were normalized by subtracting the median fluorescence obtained in the absence of added peptides from each peptide sample and then expressing those values as the percent of the fluorescence obtained with […] (which was examined in all experiments). Peptide binding was also analyzed by the ability to stabilize cell surface K^b molecules. Empty class I molecules are thermolabile, but they can be stabilized by binding appropriate peptides. Peptides were bound to K^b molecules expressed on the surfaces of K^b transfected Drosophila cells. Their relative binding strengths are indicated by their median fluorescence.

[2] = molecular target: T2, K^b (Mus musculus, UniProt P01901); conditions: known immunodominant epitope, characterized previously; read-out: KD (dissociation constant); cited from earlier work
T2 construct: Soluble K^b was purified from transfected Drosophila cells; made in house; host or cells: transfected Drosophila cells
T2 sequence (P01901 22-305 limits assumed): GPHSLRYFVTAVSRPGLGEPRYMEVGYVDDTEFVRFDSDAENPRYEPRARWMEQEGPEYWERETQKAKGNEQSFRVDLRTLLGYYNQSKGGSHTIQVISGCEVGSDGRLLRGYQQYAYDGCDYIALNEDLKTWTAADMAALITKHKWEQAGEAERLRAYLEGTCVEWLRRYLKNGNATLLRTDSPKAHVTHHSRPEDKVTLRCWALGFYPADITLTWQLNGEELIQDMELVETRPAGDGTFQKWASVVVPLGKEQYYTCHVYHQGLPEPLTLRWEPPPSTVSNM
T2 sequence (P01887 21-119 partner): T1 sequence (P01887 21-119 partner)

[3] = molecular target: T2, K^b; assay: biochemical; assay type: binding
[4] = 18-hour incubation with peptide, 23° C., antibody Y3, median fluorescence normalized to SIINFEKL
[5] = read-out: KD (dissociation constant)

Compound | FACS Analysis % SIINFEKL (relative amount of K^b on cell surface) [1, 4] | Kd [2] | Kd [3] | Kd [3, 5] | FACS Analysis % SIINFEKL (relative amount of K^b on cell surface) [1]
CC[C@H](C)[C@H](NC(=O)[C@@H](NC(=O)[C@@H](N)CO)[C@@H](C)CC)C(=O)N[C@@H](CC(N)=O)C(=O)N[C@@H](Cc1ccccc1)C(=O)N[C@@H](CCC(=O)O)C(=O)N[C@@H](CCCCN)C(=O)N[C@@H](CC(C)C)C(=O)O [Peptide 1, reference compound] | 100 % SIINFEKL | 3 nM | – | – | –
AEERYPIL [Peptide 3] | 42 % SIINFEKL | – | 67000 nM | – | –
ASEKMKIL [Peptide 9] | 4 % SIINFEKL | – | 550000 nM | – | –
DHPFLFCI [Peptide 10] | 38 % SIINFEKL | – | 47000 nM | – | –
DVYSFSLA [Peptide 7] | 65 % SIINFEKL | – | 70 nM | – | –
ENIFYCPI [Peptide 11] | – | – | – | 94 nM | 77
GTMSMLVL [Peptide 8] | 0 % SIINFEKL | – | 1200 nM | – | –
KVVRFDKL [Peptide 5] | 94 % SIINFEKL | – | 26 nM | – | –
NAIVFKGL [Peptide 4] | 76 % SIINFEKL | – | 13 nM | – | –
RGDKLPGFG [Peptide 6] | 30 % SIINFEKL | – | 550000 nM | – | –
RGYVYQGL [VSV8, reference compound] | – | – | – | 4.1 nM | –
SALAMVYL [Peptide 2] | 100 % SIINFEKL | – | 7.1 nM | – | –

From US5933819A, “Prediction of relative binding motifs of biologically active peptides and peptide mimetics” (The Scripps Research Institute, priority 1997, dated 1999)
